Data as given in article PMC6688371, “Effect of the inhaled PDE4 inhibitor CHF6001 on biomarkers of inflammation in COPD” (Respiratory Research, 2019).
Read-outs that look alike come from different tables or passages of the source. Marks after values point to notes of the source that are not given here.

Columns and labels:
[1] = Plasma pharmacokinetics at steady state (Day 32); assay type: in vivo, human; conditions: for Tmax,ss / CL/F / Cmax / AUC(0-t): plasma on Day 32; for Tmax,ss: median (range); for CL/F / Cmax / AUC(0-t): both sexes, human, inhaled or intranasal, geometric mean (%CV); for AUC(0-t): read-out: AUC0–12,ss
Experimental: (§1) Induced sputum was collected pre-dose on Day 1 of each treatment period (for the first treatment period, the sample could be collected up to 10 days prior to Day 1), and 2 h post-dose on Days 20, 26 and 32 (see the Additional file 1 for further detail on sputum and blood analysis methods). Blood samples were taken pre-dose on Day 1, and pre-dose and at 30 min, and 1, 1.5, 2, 3, 4, 6, 8 and 12 h post-dose on Day 32. Other pre-dose assessments on Days 1 and 32 were spirometry (forced expiratory volume in 1 s [FEV1] and forced vital capacity [FVC]), forced oscillometry, and COPD Assessment Test (CAT), with Baseline Dyspnea Index recorded on Day 1 and Transition Dyspnea Index (TDI) on Day 32. Central and peripheral airways mechanics were assessed using forced oscillometry, with the following values determined: inspiratory and expiratory resistance (at 5 and 19 Hz), inspiratory and expiratory reactance, tidal expiratory flow limitation and the percentage of flow limited breaths.
The mean changes from baseline to Day 32 for lung function, CAT and TDI were analysed using similar methodology to sputum biomarkers, but were not log-transformed. […] The sputum concentration of CHF6001 was also evaluated at 2 h post-dose, using the mean of all values measured on Days 20, 26 and 32. Pharmacokinetic variables were summarised using geometric means and coefficients of variation, except for Tmax,ss, which is presented as median (range). […]
Validation procedures again followed those outlined for the analysis of biomarkers above. All […]
concentrations of biomarkers in human serum or plasma from regulatory studies.
Blood for the pharmacokinetic analysis was collected pre-dose and at 30 min, and 1, 1.5, 2, 3, 4, 6, 8 and 12 h post-dose on Day 32 of each treatment period. Samples were centrifuged at 2000 g for 15 min at 4C, with the resulting plasma shipped to the central laboratory at –60 […]
to –90C. The plasma concentration of CHF6001 was evaluated using a LC-MS/MS method following solid phase extraction. Validation procedures again followed those outlined for the analysis of biomarkers above. The bioanalytical method wa s found to be linear over the calibration range of 10 to 20,000 pg/mL. The precision and accuracy of the method was found to be within the target limits of within 20% at the lower limit of quantification 10 pg/mL and within 15% at all other concentrations.
The recovery of CHF6001 from human plasma was consistent across the analytical range , with no significant matrix effects. […]
for up to 24 h at the sample processing temperature (nominally +20C), a fter storage for 184 days in a freezer (nominally –80C) and after four freeze-thaw cycles at nominally – 80C / +20C. Therefore the method was considered to be suitable for measuring concentrations of CHF6001 in human plasma samples from regulatory studies.
The study was approved by two centralised ethics committees on behalf of the sites:
• UK: Health Research Authority, North West, Greater Manchester South Research Ethics Committee, Manchester (approval reference 16/NW/0553).
• Germany: Ethics Committee of Hesse Medical Association, Frankfurt am Main (approval reference FF 98/2016).
Patients had to meet all the following inclusion criteria to be eligible for enrolment into the […]
1. Written informed consent obtained prior to any study-related procedures;
2. Male or female aged ≥40 years;
3. A female was eligible to enter the study if they were of non-childbearing potential, i.e. physiologically incapable of becoming pregnant (e.g. postmenopausal women defined as being amenorrhoeic for ≥12 consecutive months without an alternative medical cause. If indicated, as per Investigator’s request, post -menopausal status

patients with COPD = experiment: Forced oscillometry; assay type: in vivo, human; conditions: for Difference in inspiratory resistance (5-19Hz), adjusted mean difference vs placebo (95% CI) / Expiratory reactance (5 Hz), adjusted mean difference vs placebo (95% CI) / Expiratory resistance (5 Hz), adjusted mean difference vs placebo (95% CI) / Expiratory resistance (19 Hz), adjusted mean difference vs placebo (95% CI) / Inspiratory reactance (5 Hz), adjusted mean difference vs placebo (95% CI) / Inspiratory resistance (5 Hz), adjusted mean difference vs placebo (95% CI) / Inspiratory resistance (19 Hz), adjusted mean difference vs placebo (95% CI) / Percentage flow limited breaths, adjusted mean difference vs placebo (95% CI) / Tidal expiratory flow limitation, adjusted mean difference vs placebo (95% CI) / Total reactance (5 Hz), adjusted mean difference vs placebo (95% CI) / Total resistance (5 Hz), adjusted mean difference vs placebo (95% CI) / Total resistance (19 Hz), adjusted mean difference vs placebo (95% CI): change from baseline to Day 32
Experimental: as §1
The mean changes from baseline to Day 32 for lung function, CAT and TDI were analysed using similar methodology to sputum biomarkers, but were not log-transformed. […] The sputum concentration of CHF6001 was also evaluated at 2 h post-dose, using the mean of all values measured on Days 20, 26 and 32. Pharmacokinetic variables were summarised using geometric means and coefficients of variation, except for Tmax,ss, which is presented as median (range).

CS(=O)(=O)Nc1ccc(C(=O)O[C@@H](Cc2c(Cl)c[n+]([O-])cc2Cl)c2ccc(OC(F)F)c(OCC3CC3)c2)cc1OCC1CC1 [CHF6001]
Tmax,ss ([1]; 800 μg BID inhaled): 2.00 (0.50; 4.08)^a h
Tmax,ss ([1]; 1600 μg BID inhaled): 2.00 (0.48; 4.05)^b h
Systemic exposure in relation to dose ([1]; Day 32, 800 vs 1600 μg BID): broadly proportional to dose
CL/F ([1]; 800 ug, 800 μg BID inhaled): 603 mL/min
Cmax ([1]; 800 ug, 800 μg BID inhaled): 2.44 ng/mL
AUC(0-t) ([1]; 800 ug, 800 μg BID inhaled): 22.1 ng·h/mL
CL/F ([1]; 1600 ug, 1600 μg BID inhaled): 653 mL/min
Cmax ([1]; 1600 ug, 1600 μg BID inhaled): 4.5 ng/mL
AUC(0-t) ([1]; 1600 ug, 1600 μg BID inhaled): 40.8 ng·h/mL
Difference in inspiratory resistance (5-19Hz), adjusted mean difference vs placebo (95% CI) (patients with COPD; 800 µg BID): –0.09 (–0.32 to 0.13) cmH2O/(L/s)
Expiratory reactance (5 Hz), adjusted mean difference vs placebo (95% CI) (patients with COPD; 800 µg BID): 0.14 (–0.49 to 0.77) cmH2O/(L/s)
Expiratory resistance (5 Hz), adjusted mean difference vs placebo (95% CI) (patients with COPD; 800 µg BID): –0.15 (–0.45 to 0.15) cmH2O/(L/s)
Expiratory resistance (19 Hz), adjusted mean difference vs placebo (95% CI) (patients with COPD; 800 µg BID): –0.04 (–0.23 to 0.15) cmH2O/(L/s)
Inspiratory reactance (5 Hz), adjusted mean difference vs placebo (95% CI) (patients with COPD; 800 µg BID): 0.18 (0.00 to 0.36) cmH2O/(L/s)
Inspiratory resistance (5 Hz), adjusted mean difference vs placebo (95% CI) (patients with COPD; 800 µg BID): –0.07 (–0.33 to 0.20) cmH2O/(L/s)
Inspiratory resistance (19 Hz), adjusted mean difference vs placebo (95% CI) (patients with COPD; 800 µg BID): 0.06 (–0.12 to 0.24) cmH2O/(L/s)
Percentage flow limited breaths, adjusted mean difference vs placebo (95% CI) (patients with COPD; 800 µg BID): 0.95 (–8.51 to 10.41)
Tidal expiratory flow limitation, adjusted mean difference vs placebo (95% CI) (patients with COPD; 800 µg BID): 0.03 (–0.56 to 0.63)
Total reactance (5 Hz), adjusted mean difference vs placebo (95% CI) (patients with COPD; 800 µg BID): 0.13 (–0.30 to 0.56) cmH2O/(L/s)
Total resistance (5 Hz), adjusted mean difference vs placebo (95% CI) (patients with COPD; 800 µg BID): –0.13 (–0.39 to 0.13) cmH2O/(L/s)
Total resistance (19 Hz), adjusted mean difference vs placebo (95% CI) (patients with COPD; 800 µg BID): –0.00 (–0.18 to 0.17) cmH2O/(L/s)
Difference in inspiratory resistance (5-19Hz), adjusted mean difference vs placebo (95% CI) (patients with COPD; 1600 µg BID): 0.05 (–0.18 to 0.27) cmH2O/(L/s)
Expiratory reactance (5 Hz), adjusted mean difference vs placebo (95% CI) (patients with COPD; 1600 µg BID): 0.082 (–0.55 to 0.72) cmH2O/(L/s)
Expiratory resistance (5 Hz), adjusted mean difference vs placebo (95% CI) (patients with COPD; 1600 µg BID): 0.21 (–0.09 to 0.52) cmH2O/(L/s)
Expiratory resistance (19 Hz), adjusted mean difference vs placebo (95% CI) (patients with COPD; 1600 µg BID): 0.14 (–0.05 to 0.33) cmH2O/(L/s)
Inspiratory reactance (5 Hz), adjusted mean difference vs placebo (95% CI) (patients with COPD; 1600 µg BID): 0.14 (–0.04 to 0.32) cmH2O/(L/s)
Inspiratory resistance (5 Hz), adjusted mean difference vs placebo (95% CI) (patients with COPD; 1600 µg BID): 0.23 (–0.03 to 0.50) cmH2O/(L/s)
Inspiratory resistance (19 Hz), adjusted mean difference vs placebo (95% CI) (patients with COPD; 1600 µg BID): 0.17 (–0.01 to 0.35) cmH2O/(L/s)
Percentage flow limited breaths, adjusted mean difference vs placebo (95% CI) (patients with COPD; 1600 µg BID): –2.06 (–11.66 to 7.53)
Tidal expiratory flow limitation, adjusted mean difference vs placebo (95% CI) (patients with COPD; 1600 µg BID): 0.05 (–0.55 to 0.65)
Total reactance (5 Hz), adjusted mean difference vs placebo (95% CI) (patients with COPD; 1600 µg BID): 0.03 (–0.41 to 0.47) cmH2O/(L/s)
Total resistance (5 Hz), adjusted mean difference vs placebo (95% CI) (patients with COPD; 1600 µg BID): 0.22 (–0.04 to 0.49) cmH2O/(L/s)
Total resistance (19 Hz), adjusted mean difference vs placebo (95% CI) (patients with COPD; 1600 µg BID): 0.15 (–0.03 to 0.32) cmH2O/(L/s)
Oscillometry parameters vs placebo (patients with COPD; either dose (800 or 1600 μg BID)): no consistent treatment–placebo differences
